Patent publication US20090123389A1, “Methods for modulating Th17 cell development in the treatment and prevention of cellulite” (priority 2007, published 2009)

Key:
CD4+ CD25− T cells [1] = test: Th17 differentiation / IL-17 expression of activated CD4+ CD25− T cells (TGFβ plus IL-6); type: cell-based, mouse; conditions: for inhibition of IL-17 expression by HPLC-purified enantiomers: TGFβ plus IL-6, day 4, compared with racemic mix
Description: Low doses of halofuginone (HF) were tested to determine the ability of HF to enhance Treg differentiation, while suppressing Th17 differentiation. Naïve CD4+ T cells (CD4+ CD25−) were isolated from the spleen and peripheral lymph nodes of C57B/6 mice. T cells were then activated using anti-CD3 (0.3 μg/ml) and anti-CD28 (0.5 μg/ml) antibodies either in media alone (row 1, 4), TGFβ alone (3 ng/ml—row 2, 5) or TGFβ (3 ng/ml) plus IL-6 (30 ng/ml) (row 3, 6). […] T cells were cultured for 3 days and CD25 and Foxp3 expression (Treg marker genes) was determine by FACS staining and flow cytometric analyses. Simultaneously, T cells were harvested and re-stimulated for 4 hours using phorbol myristic acetate (PMA; 10 nM), Ionomycin (1 μM) and cytokine secretion was prevented using brefeldin A (20 μg/ml). Following stimulation, the production of IL-17 and IFNγ were determined by intracellular staining and analyzed via flow cytometry.
The dose-response of HF on CD4+ T cell proliferation, activation (i.e. CD25 upregulation) and differentiation to Th1, Th2 and Th17 lineages were evaluated. Purified murine naïve CD4+ CD25− T cells were activated using anti-CD3 (0.3 μg/ml) and anti-CD28 (0.5 μg/ml) antibodies and varying amounts of HF was added to each T cell culture condition (1.25 nM-40 nM). CD4+ T cell proliferation was monitored by CFSE dilution on day 3-post activation and CD25 expression was evaluated by FACS staining 2 days after activation. For T cell differentiation experiments, naïve T cells were activated as above in the presence of Th1 (IL-12 (20 ng/ml) plus anti-IL-4 (1.5 μg/ml)), Th2 (IL-4 (50 ng/ml) plus anti-IFNγ (0.5 mg/ml)) or Th17 (TGFβ (3 ng/ml) plus IL-6 (30 ng/ml)) polarizing conditions plus titrating amounts of HF (1.25 nM-40 nM) or MAZ1310 (40 nM). […] All cytokine expression was determined by intracellular staining following PMA+Ionomycin+Brefeldin A re-stimulation and all data was normalized to control (MAZ1310)-treated cells. […] Biol., vol. 80:1-8 (2006).
(§1) Cytokines, antibodies and T cell culture: Purified CD4^+ CD25^− T cells were activated in vitro as previously described (I. M. Djuretic et al., Nat Immunol 8, 145 (2007)) using 0.3 μg/ml hamster anti-mouse CD3 (clone 145-2C11) (ATCC—Manassas, Va.) and 0.5 μg/ml hamster anti-mouse CD28 (BD Pharmingen, San Jose, Calif.). Activated cell cultures were differentiated using the following combinations of cytokines and antibodies: iTreg=recombinant human TGFβ1 (3 ng/ml; R&D systems, Minneapolis, Minn.), Th17=TGFβ1 (3 ng/ml) plus recombinant mouse IL-6 (30 ng/ml, R&D systems). Th1 and Th2 differentiation was performed as previously described. (I. M. Djuretic et al., Nat Immunol 8, 145 (2007)). Human IL-2 supernatant (National Cancer Institute) was used in culture at 0.01 U/ml and was added at 48 hours-post activation when T cells were split into tissue culture wells lacking CD3 and CD28 antibodies, with the exception of Th17 cultures that were maintained in the absence of IL-2. All reagents were added at the time of T cell activation and again at 48-hours post activation unless indicated otherwise. For some experiments, purified CD4^+ CD25^− T cells, CD8^+ T cells or B cells were labeled with 1 μM CFSE (Invitrogen) prior to activation in accordance with manufacturers instructions.
MAZ1310 was generated by chemical derivatization of halofuginone and was used at equal concentrations as a negative control.

TGFβ signaling = TGFβ signaling in T and B cells (Smad phosphorylation, lymphocyte responses to TGFβ); type: cell-based, mouse; conditions: HF 10 nM (2.5-40 nM for Smad); SB-431542 10 μM
Description: DMSO, 10 nM HF, 10 nM MAZ1310 or 10 μM SB-431542 was added as indicated at the time of activation and intracellular cytokine staining was performed on expanded T cells on day 5 as in FIG. 14B
FIG. 15B is an illustration depicting the analysis of CD8^+ T cells that were activated in the presence or absence of TGFβ and cultured with DMSO, 10 nM HF, 10 nM MAZ1310 or 10 μM SB-431542. Expanded cells were restimulated on day 5 and intracellular staining was performed as above.
FIG. 15C is an illustration depicting the analysis of CFSE-labeled B cells that were activated by LPS stimulation in the presence or absence of TGFβ plus DMSO, 10 nM HF, 10 nM MAZ1310 or 10 μM SB-431542. Intracellular IL-6 production in B cells re-stimulated with PMA plus ionomycin, or cell-surface IgA expression was determined 4 days after activation by FACS analyses.
T cells were then activated in the presence or absence of 3 ng/ml TGFβ. Whole cell extracts were prepared after 1 hour of stimulation and western blot analyses were performed using the indicated antibodies.
Western blotting: Whole cell lysates were generated from T cells activated for the indicated times. For STAT3 and Smad2/3 western blots cells were harvested, washed in PBS and lysed in 50 mM Tris, pH 7.4, 0.1% SDS, 1% Triton-×100, 140 mM NaCl, 1 mM EDTA, 1 mM EGTA supplemented with protease inhibitors tablets (Roche—Germany), 1 mM NaF and 1 mM Na3VO4. […]

[2] = tested on: unfolded protein response (Xbp-1 splicing); test: Xbp-1 splicing / ER stress response in activated T cells; conditions: tunicamycin 1 μg/ml or 10 nM HF, 4 hours
CD4+ CD25− T cells [3] = test: CD4+ T cell proliferation, CD25 upregulation, cytokine production, Th1/Th2/iTreg differentiation; type: cell-based, mouse; conditions: titrating concentrations of tunicamycin
Description: The dose-response of HF on CD4+ T cell proliferation, activation (i.e. CD25 upregulation) and differentiation to Th1, Th2 and Th17 lineages were evaluated. Purified murine naïve CD4+ CD25− T cells were activated using anti-CD3 (0.3 μg/ml) and anti-CD28 (0.5 μg/ml) antibodies and varying amounts of HF was added to each T cell culture condition (1.25 nM-40 nM). CD4+ T cell proliferation was monitored by CFSE dilution on day 3-post activation and CD25 expression was evaluated by FACS staining 2 days after activation. For T cell differentiation experiments, naïve T cells were activated as above in the presence of Th1 (IL-12 (20 ng/ml) plus anti-IL-4 (1.5 μg/ml)), Th2 (IL-4 (50 ng/ml) plus anti-IFNγ (0.5 mg/ml)) or Th17 (TGFβ (3 ng/ml) plus IL-6 (30 ng/ml)) polarizing conditions plus titrating amounts of HF (1.25 nM-40 nM) or MAZ1310 (40 nM). The percentage of Th17 cells, (IL-17^+ IFNγ^−) was evaluated on day 3 following activation, whereas the abundance of Th1 cells (IFNγ^+ IL-4) and Th2 cells (IL-4^+ IFNγ^−) was determined 5 days following activation. All cytokine expression was determined by intracellular staining following PMA+Ionomycin+Brefeldin A re-stimulation and all data was normalized to control (MAZ1310)-treated cells. […] Biol., vol. 80:1-8 (2006).
as §1
Detection of cytokine production: Cytokines secreted into media supernatant were measured using the mouse Th1/Th2 cytometric bead array (CBA, BD Pharmingen) in accordance with manufacturers instructions. Briefly, CD4^+ CD25^− T cells were activated in anti-CD3/anti-CD28-coated tissue culture wells and supernatants were collected at the indicated times. For detection of intracellular cytokines in murine cells, cultured T or B cells were stimulated with 10 nM PMA (Sigma) and […] (Sigma) for 4-5 hours in the presence of […] (Sigma). Stimulated cells were harvested, washed with PBS and fixed with PBS plus 4% paraformaldehyde at room temperature for 20 minutes. […]

In the case of `O=C(CC1NCCCC1O)Cn1cnc2cc(Br)c(Cl)cc2c1=O` (single isomer, unassigned) [D-enantiomer of HF], the “inhibition of IL-17 expression by HPLC-purified enantiomers” value (CD4+ CD25− T cells [1]) is reported as “more potently than a racemic mix”.
For `O=C(CC1NCCCC1O)Cn1cnc2cc(Br)c(Cl)cc2c1=O` (single isomer, unassigned) [L-enantiomer], the “inhibition of IL-17 expression by HPLC-purified enantiomers” value (CD4+ CD25− T cells [1]) was “completely inactive”.
With `N[C@H](CO)Cc1c[nH]c2ccccc12` [L-tryptophanol] the IL-17 production (CD4+ CD25− T cells [1]; 0.2 mM L-tryptophanol, TGFβ plus IL-6) was “impaired IL-17 production”.
With `CC(C)(C)OC(=O)N1CCC[C@H](O)[C@H]1CC(=O)Cn1cnc2cc(Br)c(Cl)cc2c1=O` [MAZ1310] the “activity of HF derivative used as negative control” value (CD4+ CD25− T cells [1]; used at equal concentrations as HF) was “inactive”.
In the case of `NC(=O)c1ccc(-c2nc(-c3ccc4c(c3)OCO4)c(-c3ccccn3)[nH]2)cc1` [SB-431542], the “TGFβ-induced Smad phosphorylation and other lymphocyte responses to TGFβ” value (TGFβ signaling) is reported as “abrogated all responses to TGFβ”.
In the case of tunicamycin, the Xbp-1 splicing [2] is reported as “together with Xbp-1 splicing”, the “IL-17 expression in T cells” value (CD4+ CD25− T cells [1]; titrating concentrations of tunicamycin) is reported as “little influence” and the “Th1 and Th2 differentiation” value (CD4+ CD25− T cells [3]) is reported as “preferentially impaired”.
